US8623859B2, “Bradykinin B1 antagonists” (Evotec AG, priority 2008, dated 2014)

molecular target: T1, human B1 (Homo sapiens, UniProt P46663); assay: Calcium flux assay for Bradykinin B1 antagonist, CHO-K1 cell line expressing human B1; assay type: cell-based; conditions: CHO-K1 cells expressing human B1, agonist Lys-(Des-Arg)-Bradykinin, read-out: Potency (IC50 value against human B1)
T1 construct: host or cells: CHO-K1
T1 sequence (P46663 1-353): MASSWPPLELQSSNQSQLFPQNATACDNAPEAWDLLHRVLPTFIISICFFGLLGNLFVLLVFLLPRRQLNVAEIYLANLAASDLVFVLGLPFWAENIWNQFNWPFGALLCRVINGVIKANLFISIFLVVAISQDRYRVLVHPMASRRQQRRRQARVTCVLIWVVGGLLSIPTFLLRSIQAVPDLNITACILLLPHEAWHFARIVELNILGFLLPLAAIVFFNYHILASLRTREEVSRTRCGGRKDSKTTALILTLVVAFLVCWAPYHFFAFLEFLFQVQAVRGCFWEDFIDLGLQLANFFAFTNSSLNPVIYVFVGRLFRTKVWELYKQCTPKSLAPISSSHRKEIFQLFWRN
In short: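 CHO-K1 cells expressing human B1, loaded with 5 μM Fluo-4AM (2 h, 37° C) in HEPES buffer pH 7.4 with probenecid and 0.1% BSA, were preincubated 30 min at 25° C with compound (8 concentrations, triplicate, 1% DMSO) before B1 agonist addition. Ca2+ fluorescence monitored at 538 nm; background-normalized integrated values plotted against log antagonist concentration.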

**Q.** With `COc1cc(C)c(S(=O)(=O)N(C)Cc2cc(C(=O)N(C)Cc3ccc(CN4CCC(OC)CC4)cc3)co2)c(C)c1` [Ex 127, 5-({[(4-Methoxy-2,6-dimethylphenyl)sulfonyl](methyl)amino}methyl)-N-{4-[(4-methoxypiperidin-1-yl)methyl]benzyl}-N-methylfuran-3-carboxamide] as the molecule, how does the IC50 read?
**A.** The IC50 was 0.01 to 0.1 µM.

**Q.** For `COc1cc(C)c(S(=O)(=O)N(C)Cc2cc(C(=O)N(C)Cc3ccc(CN4CC(O)C4)cc3)co2)c(C)c1` [Ex 128, N-{4-[(3-Hydroxyazetidin-1-yl)methyl]benzyl}-5-({[(4-methoxy-2,6-dimethylphenyl)sulfonyl](methyl)amino}methyl)-N-methylfuran-3-carboxamide], which IC50 is on record?
**A.** Its IC50 is 0.1 to 1 µM.

**Q.** `COc1cc(C)c(S(=O)(=O)N(C)Cc2cc(C(=O)N(C)Cc3ccc(CN4CCC(OC)C4)cc3)co2)c(C)c1` (centres unmarked) [Ex 129, 5-({[(4-Methoxy-2,6-dimethylphenyl)sulfonyl](methyl)amino}methyl)-N-{4-[(3-methoxypyrrolidin-1-yl)methyl]benzyl}-N-methylfuran-3-carboxamide] was tested. Which IC50 did it give?
**A.** Its IC50 is 0.1 to 1 µM.

**Q.** With `COc1cc(C)c(S(=O)(=O)N(C)Cc2cc(C(=O)N(C)Cc3ccc(CN4CCCC(OC)C4)cc3)co2)c(C)c1` (centres unmarked) [Ex 130, 5-({[(4-Methoxy-2,6-dimethylphenyl)sulfonyl](methyl)amino}methyl)-N-{4-[(3-methoxypiperidin-1-yl)methyl]benzyl}-N-methylfuran-3-carboxamide] as the molecule, how does the IC50 read?
**A.** Its IC50 is 0.1 to 1 µM.

**Q.** With `COc1cc(C)c(S(=O)(=O)N(C)Cc2cc(C(=O)N(C)Cc3ccc(CN4CCC(C(=O)N(C)C)C4)cc3)co2)c(C)c1` (centres unmarked) [Ex 131, 1-(4-{[{[5-({[(4-Methoxy-2,6-dimethylphenyl)sulfonyl](methyl)amino}methyl)furan-3-yl]carbonyl}(methyl)amino]methyl}benzyl)-N,N-dimethylpyrrolidine-3-carboxamide] as the molecule, how does the IC50 read?
**A.** The IC50 was 0.1 to 1 µM.

**Q.** How did the IC50 turn out when `COc1cc(C)c(S(=O)(=O)N(C)Cc2cc(C(=O)N(C)Cc3ccc(CN4CCC(NC(C)=O)C4)cc3)co2)c(C)c1` (centres unmarked) [Ex 132, N-(4-{[3-(Acetylamino)pyrrolidin-1-yl]methyl}benzyl)-5-({[(4-methoxy-2,6-dimethylphenyl)sulfonyl](methyl)amino}methyl)-N-methylfuran-3-carboxamide] was run?
**A.** Its IC50 is 0.1 to 1 µM.

**Q.** With `COc1cc(C)c(S(=O)(=O)N(C)Cc2cc(C(=O)N(C)Cc3ccc(CN4CC(OC)C4)cc3)co2)c(C)c1` [Ex 133, N-{4-[(3-Methoxyazetidin-1-yl)methyl]benzyl}-5-({[(4-methoxy-2,6-dimethylphenyl)sulfonyl](methyl)amino}methyl)-N-methylfuran-3-carboxamide] as the molecule, how does the IC50 read?
**A.** The IC50 was 0.1 to 1 µM.

**Q.** For `COc1cc(C)c(S(=O)(=O)N(C)Cc2cc(C(=O)N(C)Cc3ccc(CN4CCCC(O)C4)cc3)co2)c(C)c1` (centres unmarked) [Ex 134, N-{4-[(3-Hydroxypiperidin-1-yl)methyl]benzyl}-5-({[(4-methoxy-2,6-dimethylphenyl)sulfonyl](methyl)amino}methyl)-N-methylfuran-3-carboxamide], which IC50 is on record?
**A.** Its IC50 is under 0.01 µM.

**Q.** For `COc1cc(C)c(S(=O)(=O)N(C)Cc2cc(C(=O)N(C)Cc3ccc(CN4CCC(O)C4)cc3)co2)c(C)c1` (centres unmarked) [Ex 135, N-{4-[(3-Hydroxypyrrolidin-1-yl)methyl]benzyl}-5-({[(4-methoxy-2,6-dimethylphenyl)sulfonyl](methyl)amino}methyl)-N-methylfuran-3-carboxamide], which IC50 is on record?
**A.** Its IC50 is 0.01 to 0.1 µM.

**Q.** Which IC50 does the source give for `COc1cc(C)c(S(=O)(=O)N(C)Cc2cc(C(=O)N(C)Cc3ccc(CN4CCC(N(C)C)C4)cc3)co2)c(C)c1` (centres unmarked) [Ex 136, N-(4-{[3-(Dimethylamino)pyrrolidin-1-yl]methyl}benzyl)-5-({[(4-methoxy-2,6-dimethylphenyl)sulfonyl](methyl)amino}methyl)-N-methylfuran-3-carboxamide] here?
**A.** The IC50 was 0.01 to 0.1 µM.

**Q.** How did the IC50 turn out when `COc1cc(C)c(S(=O)(=O)N(C)Cc2cc(C(=O)N(C)Cc3nnc(CN4CCCC4)s3)co2)c(C)c1` [Ex 137, 5-({[(4-Methoxy-2,6-dimethylphenyl)sulfonyl](methyl)amino}methyl)-N-methyl-N-{[5-(pyrrolidin-1-ylmethyl)-1,3,4-thiadiazol-2-yl]methyl}furan-3-carboxamide] was run?
**A.** The IC50 was 0.1 to 1 µM.

**Q.** `COc1cc(C)c(S(=O)(=O)N(C)Cc2cc(C(=O)N(C)Cc3nc(CN4CCCC4)cs3)co2)c(C)c1` [Ex 138, 5-({[(4-Methoxy-2,6-dimethylphenyl)sulfonyl](methyl)amino}methyl)-N-methyl-N-{[4-(pyrrolidin-1-ylmethyl)-1,3-thiazol-2-yl]methyl}furan-3-carboxamide] was tested. Which IC50 did it give?
**A.** The IC50 was under 0.01 µM.

**Q.** How did the IC50 turn out when `COc1cc(C)c(S(=O)(=O)N(Cc2cc(C(=O)N(C)Cc3ccc(CN4CCC(O)CC4)cc3)co2)C2CC2)c(C)c1` [Ex 139, 5-({Cyclopropyl[(4-methoxy-2,6-dimethylphenyl)sulfonyl]amino}methyl)-N-{4-[(4-hydroxypiperidin-1-yl)methyl]benzyl}-N-methylfuran-3-carboxamide] was run?
**A.** The IC50 was 0.01 to 0.1 µM.

**Q.** Which IC50 does the source give for `COc1cc(C)c(S(=O)(=O)N(Cc2cc(C(=O)N(C)Cc3ccc(CN4CCC(N(C)C)C4)cc3)co2)C2CC2)c(C)c1` (centres unmarked) [Ex 140, 5-({Cyclopropyl[(4-methoxy-2,6-dimethylphenyl)sulfonyl]amino}methyl)-N-(4-{[3-(dimethylamino)pyrrolidin-1-yl]methyl}benzyl)-N-methylfuran-3-carboxamide] here?
**A.** The IC50 was 0.01 to 0.1 µM.

**Q.** `COc1cc(C)c(S(=O)(=O)N(Cc2cc(C(=O)N(C)Cc3ccc(CN4CCC(O)C4)cc3)co2)C2CC2)c(C)c1` (centres unmarked) [Ex 141, 5-({Cyclopropyl[(4-methoxy-2,6-dimethylphenyl)sulfonyl]amino}methyl)-N-{4-[(3-hydroxypyrrolidin-1-yl)methyl]benzyl}-N-methylfuran-3-carboxamide] was tested. Which IC50 did it give?
**A.** The IC50 was 0.01 to 0.1 µM.

**Q.** How did the IC50 turn out when `COc1cc(C)c(S(=O)(=O)N(Cc2cc(C(=O)N(C)Cc3ccc(CN4CCCC(O)C4)cc3)co2)C2CC2)c(C)c1` (centres unmarked) [Ex 142, 5-({Cyclopropyl[(4-methoxy-2,6-dimethylphenyl)sulfonyl]amino}methyl)-N-{4-[(3-hydroxypiperidin-1-yl)methyl]benzyl}-N-methylfuran-3-carboxamide] was run?
**A.** The IC50 was under 0.01 µM.

**Q.** How did the IC50 turn out when `COc1cc(C)c(S(=O)(=O)N(Cc2cc(C(=O)N(C)Cc3ccc(CN4CCC(OC)CC4)cc3)co2)C2CC2)c(C)c1` [Ex 143, 5-({Cyclopropyl[(4-methoxy-2,6-dimethylphenyl)sulfonyl]amino}methyl)-N-{4-[(4-methoxypiperidin-1-yl)methyl]benzyl}-N-methylfuran-3-carboxamide] was run?
**A.** The IC50 was 0.01 to 0.1 µM.

**Q.** With `COc1cc(C)c(S(=O)(=O)N(Cc2cc(C(=O)N(C)Cc3ccc(CN4CCCC(OC)C4)cc3)co2)C2CC2)c(C)c1` (centres unmarked) [Ex 144, 5-({Cyclopropyl[(4-methoxy-2,6-dimethylphenyl)sulfonyl]amino}methyl)-N-{4-[(3-methoxypiperidin-1-yl)methyl]benzyl}-N-methylfuran-3-carboxamide] as the molecule, how does the IC50 read?
**A.** The IC50 was 0.1 to 1 µM.

**Q.** With `COc1cc(C)c(S(=O)(=O)N(Cc2cc(C(=O)N(C)Cc3ccc(CN4CCC(OC)C4)cc3)co2)C2CC2)c(C)c1` (centres unmarked) [Ex 145, 5-({Cyclopropyl[(4-methoxy-2,6-dimethylphenyl)sulfonyl]amino}methyl)-N-{4-[(3-methoxypyrrolidin-1-yl)methyl]benzyl}-N-methylfuran-3-carboxamide] as the molecule, how does the IC50 read?
**A.** The IC50 was 0.01 to 0.1 µM.

**Q.** Which IC50 does the source give for `COc1cc(C)c(S(=O)(=O)N(Cc2cc(C(=O)N(C)Cc3ccc(CN4CCC(NC(C)=O)C4)cc3)co2)C2CC2)c(C)c1` (centres unmarked) [Ex 146, N-(4-{[3-(Acetylamino)pyrrolidin-1-yl]methyl}benzyl)-5-({cyclopropyl[(4-methoxy-2,6-dimethylphenyl)sulfonyl]amino}methyl)-N-methylfuran-3-carboxamide] here?
**A.** Its IC50 is 0.1 to 1 µM.
